Measurements taken from patent publication US4281009A, “Hydantoin derivatives” (Nippon Zoki Pharmaceutical Co., Ltd., priority 1978, dated 1981).

Tests used:
SART stress mice = test: Inhibitory effects on increase of heart rate and elongation of QRS-time in SART stress mice; format: in vivo, mice (dd-strain male); conditions: 50 mg/kg/day, 9th day, Average ± S.D.
Procedure: SART stress animals used in the tests described below were raised according to a method of Kita, et al. [Folia Pharmacol. Japan.: 71, 195-210 (1975)].
2. Inhibitory effects on increase of heart rate and elongation of QRS-time in stress animals:
Groups of mice each comprising 11 or 12 dd-strain male mice were divided into three groups in the same manner as above and heart rate and QRS-time were determined on the 9th day after initiation of the tests.

[1] = Acute toxicity test (LD50, Litchfield-Wilcoxon), rats; conditions: rat, in vivo, ip, intraperitoneal
Procedure: (§1) Toxicity tests were carried out by intraperitoneal administration of the compound of the present invention to groups each comprising 10 ICR-strain mice and SD-strain rats. LD50 was calculated by the Litchfield-Wilcoxon method based on the number of death 72 hours after the administration.

[2] = test system: normal mice and SART stress mice; test: Analgesic effect, tail pressure method (Randall-Selitto's device); format: in vivo, mice (ddY-strain male); conditions: for change in vivo at 100 mg/kg / change in vivo at 160 mg/kg: Mus musculus; for change in vivo at 160 mg/kg: peroral 160 mg/kg; for Analgesic effect: intraperitoneal 50 mg/kg
How it was run: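 Randall-Selitto tail pressure threshold measured 60 min after intraperitoneal dosing, expressed as post/pre-dose pressure ratio versus vehicle control (0.5% CMC-Na or 0.5% Tween 80, 10 ml/kg). For oral dosing, mean of readings at 30, 60, 90 and 120 min used.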

dd-strain male mice [3] = test: Antiulcerogenic effect on Takagi's restraint-plus-water-immersing ulcer; format: in vivo; conditions: Mus musculus, ip
How it was run: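 Groups of 8–26 male dd mice given compound intraperitoneally immediately before restraint plus water immersion (Takagi method). Summed lesion length in the glandular stomach was compared with that of the control group.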

dd-strain male mice [4] = test: Inhibitory effect on exploratory movements; format: in vivo; conditions: after 60 minutes
Procedure: 4.2. Inhibitory effect on exploratory movements:
Groups each comprising 16-35 dd-strain male mice were used. The compounds of the present invention were given intraperitoneally. After 60 minutes, exploratory movements for 15 minutes were measured with an exploratory movement recorder by a method of Tokyo Kyoiku University.

[5] = test system: spontaneously hypertensive rats (SHR); test: Antihypertensive effect in spontaneously hypertensive rats; format: in vivo; conditions: 150 mg/Kg intraperitoneal, 60 minutes
Procedure: 8. Antihypertensive effect: Groups of rats each comprising 6-9 spontaneously hypertensive rats (SHR) were used. The compounds of the present invention or DPH was given intraperitoneally. The rate of antihypertension 60 minutes after the administration was determined.

[6] = Acute toxicity test (LD50, Litchfield-Wilcoxon), mice; conditions: mouse, in vivo, ip, intraperitoneal
Procedure: as §1

[7] = test system: normal mice and SART stress mice; test: Analgesic effect, acetic acid writhing method; format: in vivo; conditions: Mus musculus, sc, 100 mg/Kg subcutaneously
How it was run: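 Normal mice and mice after 8 days of SART stress (5 per group) received 100 mg/Kg compound subcutaneously. Writhing was then induced with 0.7% acetic acid in isotonic saline, 0.1 ml/10 g i.p. Writhes were counted over 15 minutes and compared with control mice.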

dd-strain male mice [8] = test: Inhibitory effect on spontaneous motor activities (Animex method); format: in vivo; conditions: after 60 minutes
Procedure: 4.1 Inhibitory effect on spontaneous motor activities:
Groups each comprising 8-16 dd-strain male mice were used. The compounds of the present invention were given intraperitoneally. After 60 minutes, spontaneous motor activities for 15 minutes were measured by the Animex method.

[9] = test system: normal rats and SART stress rats; test: Analgesic effect, pain induced by Bradykinin; format: in vivo, rats (SD-strain male)
Procedure: 5.4 Method of measuring a pain induced by Bradykinin:
Groups each comprising 4-8 SD-strain male normal rats and SART stress rats to which SART stress had been applied for 4 days were used. The tests were carried out according to the method of Deffenu et al. [Deffenu, G., Pegrassi, L., & Fumachi. B.; J. Pharm. Pharmacol.; 18, 135 (1966)] and Blane method [Blane, G. F.; J. Pharm. Pharmacol.; 19, 367 (1967)]. The effect judged was shown by ratio of the rats in which the effect was recognized according to the method of Abe, et al. [Abe, Kaneko & Takagi; Folia Pharmacol. Japon.; 67, 9-14 (1971)].

[10] = test system: normal mice and SART stress mice; test: Analgesic effect, D'Amour-Smith method; format: in vivo, mice (ddY-strain male); conditions: Mus musculus; for responders at 160 mg/kg: peroral 160 mg/kg
How it was run: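 ddY male normal mice and mice under 4-day SART stress (n=10/group); black-inked tail root irradiated with infrared rays (up to 15 s cutoff), escape latency recorded. Effect expressed as proportion of mice whose mean latency at 30, 60, 90 and 120 min post-dose was at least 2× pre-dose latency.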

## COc1ccc(C2(c3ccc(OC)c(Cl)c3)NC(=O)NC2=O)cc1 (centres unmarked) [Compound 2, 5-(3-chloro-4-methoxyphenyl)-5-(4-methoxyphenyl)hydantoin]
SART stress mice
  Heart rate: 698 ± 42 min⁻¹
  QRS-time: 12.9 ± 0.8 1/1000 sec
[1]; female
  LD50 at 72 h: 1540 mg/kg
[1]; male
  LD50 at 72 h: 1600 mg/kg
[2]; ip, 1 h, SART stress mice, intraperitoneal 100 mg/kg, 60 minutes
  change in vivo at 100 mg/kg: 139%
[2]; ip, 1 h, normal mice, intraperitoneal 100 mg/kg, 60 minutes
  change in vivo at 100 mg/kg: 90.7%
[2]; po, SART stress mice, peroral 100 mg/kg, average of 30, 60, 90 and 120 minutes
  change in vivo at 100 mg/kg: 70%
[2]; po, SART stress mice, average of 30, 60, 90 and 120 minutes
  change in vivo at 160 mg/kg: 88.2%
[2]; po, normal mice, peroral 100 mg/kg, average of 30, 60, 90 and 120 minutes
  change in vivo at 100 mg/kg: 37.3%
[2]; po, normal mice, average of 30, 60, 90 and 120 minutes
  change in vivo at 160 mg/kg: 50.2%
[2]; SART stress mice, 60 minutes
  Analgesic effect: 79.6%
[2]; normal mice, 60 minutes
  Analgesic effect: 54.6%
dd-strain male mice [3]; 75 mg/kg intraperitoneal
  inhibition in vivo at 75 mg/kg: 15.4%
dd-strain male mice [3]; 150 mg/kg intraperitoneal
  inhibition in vivo at 150 mg/kg: 36.6%
dd-strain male mice [4]; 50 mg/kg intraperitoneal
  Inhibitory effect on exploratory movements: 29.0%
dd-strain male mice [4]; 100 mg/kg intraperitoneal
  Inhibitory effect on exploratory movements: 38.8%
dd-strain male mice [4]; 125 mg/kg intraperitoneal
  Inhibitory effect on exploratory movements: 47.8%
[5]
  Rate of antihypertension: 22.4%
[6]; female
  LD50 at 72 h: 920 mg/kg
[6]; male
  LD50 at 72 h: 1000 mg/kg
[7]; SART stress mice
  inhibition in vivo at 100 mg/kg: 27.1%
[7]; normal mice
  inhibition in vivo at 100 mg/kg: 4.4%
dd-strain male mice [8]; 50 mg/kg intraperitoneal
  Inhibitory effect on spontaneous motor activities: 39.8%
dd-strain male mice [8]; 100 mg/kg intraperitoneal
  Inhibitory effect on spontaneous motor activities: 50.1%
dd-strain male mice [8]; 125 mg/kg intraperitoneal
  Inhibitory effect on spontaneous motor activities: 56.3%
[9]; SART stress rats, intraperitoneal 100 mg/kg
  Analgesic effect: 75%
[9]; SART stress rats, peroral 100 mg/kg
  Analgesic effect: 30%
[9]; normal rats, intraperitoneal 100 mg/kg
  Analgesic effect: 66.7%
[9]; normal rats, peroral 100 mg/kg
  Analgesic effect: 10%
[10]; ip, SART stress mice, intraperitoneal 100 mg/kg
  responders at 100 mg/kg: 50%
[10]; ip, normal mice, intraperitoneal 100 mg/kg
  responders at 100 mg/kg: 30%
[10]; po, SART stress mice, peroral 100 mg/kg
  responders at 100 mg/kg: 30%
[10]; po, SART stress mice
  responders at 160 mg/kg: 60%
[10]; po, normal mice, peroral 100 mg/kg
  responders at 100 mg/kg: 10%
[10]; po, normal mice
  responders at 160 mg/kg: 30%
